Experimental data published in US6995188B2 (priority 2002, dated 2006).
Where “and” joins values, the source holds several entries; their conditions need not be identical. Equal entries are not always repeated.

Legend:
[1] = SGLU1 multiple dose toxicology in vivo; parameters: species or system mice
Method: Further studies were performed to determine the dose-limiting toxicity associated with the administration of repeated doses in groups of mice. Tables 11–16 below describe the results of the multiple-dose toxicology studies for MER-1 and Tables 17–21 describe results of the multiple-dose toxicology of SGLU-1.
The results of the SGLU-1 Multiple Dose I.V. are summarized as follows: Five mice/sex were administered 5 daily intravenous injections of SGLU via the tail vein at doses of 50, 100, 150, 200, 250, 300, and 350 mg/kg/day. All surviving mice were held for 28 days, sacrificed, and designated tissues collected, formalin fixed, and examined.

[2] = test system: P388 lymphocytic leukemia cells; settings: mouse, in vivo, ip, 100 mg/kg; cited from earlier work
[3] = pH 5
NB4 cells = assay type: cell-based, human
[4] = test system: panel of 60 tumor cell lines; assay type: cell-based, human
[5] = 5 daily IV injections, 50–350 mg/kg/day

## C[As](C)SC[C@H](NC(=O)CC[C@H](N)C(=O)O)C(=O)NCC(=O)O [SGLU1, S-(dimethylarsino) glutathione]
[1]; 300 mg/kg/day, F
  Liver: Pyogranuloma, focal, incidence: 1/5
  Lung: Atelectasis, incidence: 1/5
  Lung: Congestion, incidence: 3/5
  Lung: Vasculitis, incidence: 1/5
  Number of animals/dose that tolerated 1 dose: 1/5
  Number of animals/dose that tolerated 2 doses: 2/5
  Number of animals/dose that tolerated 5 doses: 2/5
  Tail: Acute necrosis with vasculitis, thrombosis, and hemorrhage, incidence: 1/5
[1]; 300 mg/kg/day, Female
  Body Weights Avg.: 24 grams
[1]; 300 mg/kg/day, M
  Epididymus: Oligospermia, incidence: 2/5
  Heart: Medial hyprtrophy, coronary artery, incidence: 1/5
  Liver: Hepatocyte hypertrophy: Centrilobular (compatible with SER), incidence: 4/5
  Liver: Pyogranuloma, focal, incidence: 2/5
  Lung: Congestion, incidence: 1/5
  Number of animals/dose that tolerated 1 dose: 3/5
  Number of animals/dose that tolerated 5 doses: 2/5
  Tail: Acute necrosis with vasculitis, thrombosis, and hemorrhage, incidence: 1/5
  Tail: Ulcerative dermatitis, incidence: 1/5
  Testes: Seminiferous tubular degeneration, incidence: 2/5
[1]; 300 mg/kg/day, Male
  Body Weights Avg.: 23 grams
[1]; 350 mg/kg/day IV daily x5
  Clinical Signs: Moderate decr. activity and 2 M tail necr.: amputate
[1]; 350 mg/kg/day, F
  Kidney: Murine progressive glomerulonephropathy, incidence: 1/5
  Liver: Hepatocyte hypertrophy: Periportal w/vacuolation, incidence: 2/5
  Liver: Inflammation, portal, incidence: 1/5
  Lung: Congestion, incidence: 2/5
  Lung: Fibrin Thrombi, incidence: 1/5
  Lung: Vasculitis, incidence: 1/5
  Mandibular L. N.: Apoptosis, lymphocyte, incidence: 1/5
  Number of animals/dose that tolerated 1 dose: 4/5
  Number of animals/dose that tolerated 2 doses: 1/5
  Spleen: Congestion, incidence: 5/5
  Thymus: Apoptosis, increased, incidence: 5/5
[1]; 350 mg/kg/day, Female
  Body Weights Avg.: 24 grams
[1]; 350 mg/kg/day, M
  Bone Marrow: Myeloid hyperplasia, incidence: 1/5
  Epididymus: Oligospermia, incidence: 5/5
  Kidney: Congestion, incidence: 1/5
  Kidney: Inflammation, focal, incidence: 1/5
  Liver: Hepatocyte hypertrophy: Centrilobular (compatible with SER), incidence: 1/5
  Liver: Increased mitoses, incidence: 1/5
  Liver: Pyogranuloma, focal, incidence: 2/5
  Lung: Fibrin Thrombi, incidence: 1/5
  Lung: Hemorrhage, focal, incidence: 2/5
  Number of animals/dose that tolerated 1 dose: 3/5
  Number of animals/dose that tolerated 5 doses: 2/5
  Spleen: Congestion, incidence: 2/5
  Spleen: Extramedullary hematopoiesis, increased, incidence: 1/5
  Tail: Acute necrosis with vasculitis, thrombosis, and hemorrhage, incidence: 1/5
  Testes: Seminiferous tubular degeneration, incidence: 5/5
  Thymus: Apoptosis, increased, incidence: 2/5
[1]; 350 mg/kg/day, Male
  Body Weights Avg.: 20 grams
[1]; [5]
  deaths (summary): Deaths occurred at 250, 300, and 350 mg/kg/day with female mice being more susceptible than males
  microscopic observations (summary): compound-related lesions in lung, liver, thymus, and testes
[1]; 5 daily IV injections, F, 50 mg/kg/day
  Deaths, number of animals/dose: 0/5
[1]; 5 daily IV injections, F, 150 mg/kg/day
  Deaths, number of animals/dose: 0/5
[1]; 5 daily IV injections, F, 200 mg/kg/day
  Deaths, number of animals/dose: 0/5
[1]; 5 daily IV injections, F, 250 mg/kg/day
  Deaths, number of animals/dose: 1/5
[1]; 5 daily IV injections, F, 300 mg/kg/day
  Deaths, number of animals/dose: 3/5
[1]; 5 daily IV injections, F, 350 mg/kg/day
  Deaths, number of animals/dose: 5/5
[1]; 5 daily IV injections, M, 50 mg/kg/day
  Deaths, number of animals/dose: 0/5
[1]; 5 daily IV injections, M, 100 mg/kg/day
  Deaths, number of animals/dose: 0/5
[1]; 5 daily IV injections, M, 150 mg/kg/day
  Deaths, number of animals/dose: 0/5
[1]; 5 daily IV injections, M, 200 mg/kg/day
  Deaths, number of animals/dose: 0/5
[1]; 5 daily IV injections, M, 250 mg/kg/day
  Deaths, number of animals/dose: 0/5
[1]; 5 daily IV injections, M, 300 mg/kg/day
  Deaths, number of animals/dose: 1/5
[1]; 5 daily IV injections, M, 350 mg/kg/day
  Deaths, number of animals/dose: 3/5
[1]; 5 daily IV injections, female mice
  no-observable-effect level: 150 mg/kg
[1]; 5 daily IV injections, female mice, 200 mg/kg/day
  centrilobular hypertrophy of hepatocytes, incidence: 1/5
[1]; 5 daily IV injections, male mice
  no-observable-effect level (NOEL): 100 mg/kg/day
[1]; 5 daily IV injections, males, 150 mg/kg/day
  testicular seminiferous tubular degeneration, incidence: 1/5
Normal donor cells
  toxicity to normal cells, long-term clonogenic assay: less toxic then arsenic trioxide to normal cells
[2]
  % T/C: 164%
[3]
  loss: Less than 10%
NB4 cells
  induction of maturation (CD11b expression): do not induce maturation
[4]
  anticancer activity, NIH panel: showed evidence of activity at low concentrations against a variety of tumor cell lines
